# Assay results as given in patent US11690833B2, “Personal care compositions” (priority 2017, dated 2023).
# Like-named read-outs stand apart in the source and are kept apart here.
# Experiments:
# oral bacteria = assay: Alamar Blue evaluation of antibacterial efficacy in the presence of the anionic surfactant SLS; type: cell-based, human saliva; conditions: 10 mg active + 20 mg of 30 weight % SLS solution + 5 ml oral bacteria solution, 37° C., 1 hour after addition of Alamar Blue dye, color change from blue to red indicates live bacteria
# Protocol: In particular, the antibacterial efficacy of a CPC—ZnCl2 complex was compared to ZnCl2 and CPC individually, in the presence of SLS, as follows: human saliva was collected and diluted three times with deionized water, centrifuged, and decanted to yield a translucent solution of oral bacteria. […] A negative control was also prepared adding 20 mg (+/−0.9 mg) of the 30 weight % SLS aqueous solution and 5 ml of the prepared oral bacteria solution to deionized water instead of the antibacterial ingredient. The samples were then placed in a 37° C. oven and shaken at 100 RPM for 30 minutes. 200 μL of Alamar Blue dye was then added to each sample and placed back in the 37° C. oven and shaken at 100 RPM. The samples were then monitored every 30 minutes, with the results 1 hour after addition of the dye recorded in Table 1. Under an Alamar Blue assay, a color change from blue to red indicates the presence of live bacteria.
Structure (SMILES),Color of Solution (oral bacteria),Color of Solution (oral bacteria; listed as CPC—ZnCl2 complex),"solubility in water (0.1 weight % solution, room temperature (23-24° C.))","solubility in water (0.5 weight % solution, room temperature (23-24° C.))","solubility in water (1.0 weight % solution, physiological temperature (36-37° C.))","solubility in water (1.0 weight % solution, room temperature (23-24° C.), after 24 hours of aging)","solubility in water (10 weight % solution, physiological temperature (36-37° C.))","solubility in water (10.0 weight % solution, room temperature (23-24° C.), after 24 hours of aging)",reduction in solubility compared to the CPC and ZnCl2 reactants separately (water) [fold]
"CCCCCCCCCCCCCCCC[n+]1ccccc1 [CPC, cetylpyridinium chloride]",pink and Pink,–,–,–,–,–,–,–,–
CCCCCCCCCCCCCCCC[n+]1ccccc1.CCCCCCCCCCCCCCCC[n+]1ccccc1.[Cl][Zn-2]([Cl])([Cl])[Cl] [CPC-ZnCl2 complex],Blue,blue,soluble,soluble,soluble,undissolved,not fully soluble,undissolved,≥ 25
"[Cl-].[Cl-].[Zn+2] [ZnCl2, zinc chloride]",Purple,–,–,–,–,–,–,–,–
